# Experiments:
# [1] = tested on: Saw-toothed grain beetle (Oryzaephilus surinamensis); experiment: Fumigation test in glass vessel, saw-toothed grain beetles; format: in vivo; details: ORYZSA beetles; Example 5; ACF 50.6/48.2/51.4 g/m^3, SF 47.4/44.6/41 g/m^3 (1st/2nd/3rd fumigation); 23/23/22° C.
# Text: a4) Saw-toothed grain beetle (Oryzaephilus surinamensis)=ORYZSA
# (§1) The test organisms, separated by species, were placed into a glass vessel measuring 30 cm×30 cm×60 cm, which was sealed with a glass lid so as to be airtight. The adults and the larvae of the mealworm beetle (Tenebrio molitor) and the broad-horned flour beetle (Gnathocerus cornutus) were placed into small glass vessels approximately 5 cm in diameter, which were closed with a gauze lid and in which they could freely move about. The larvae of the rice weevil had burrowed into seeds of grain. The wood pest larvae were inserted into small blocks of wood measuring 5 cm×2.5 cm×2 cm. The openings were sealed with wads of cotton wool. Only one each of the larvae of the house longhorn beetle (Hylotrupes bajulus) was inserted into a piece of wood, while 6-8 larvae of the common furniture beetle (Anobium punctatum) were inserted into each piece of wood.
# (§2) The respective gas was then introduced into the fumigation vessel through a gas line from a gas tank that contained the specified amount of gas. After a defined time period, the fumigation vessel was purged with compressed air. The discharged gas was purified by an attached gas scrubber.
# (§3) The beetles were observed until they died. This point was recorded for each species. The larvae of the wood pests as well as the larvae of the rice weevil (Sitophilus oryzae) had to be picked out of the wood or the grain to check their condition. If any of the animals were still alive, the wooden test blocks remaining in the vessel were fumigated again and were reexamined after the corresponding time span had elapsed. The same number of animals in the untreated control was also checked at each point.
# (§4) The vitality of the animals was checked at certain time intervals. The beetles could be observed through the fumigation vessel. This was also true for the larvae of the mealworm beetle and the broad-horned flour beetle. The wooden test blocks of the wood pest larvae were opened with hammer and chisel. Tweezers were used to pull the rice weevil larvae out of the grain seeds. The exact time intervals and the number of the evaluated pests were documented in the test results.
# [2] = tested on: Broad-horned flour beetle (Gnathocerus cornutus) larvae; experiment: Fumigation test in glass vessel, broad-horned flour beetle larvae; format: in vivo; details: GNATCO larvae; Example 5; ACF 50.6/48.2/51.4 g/m^3, SF 47.4/44.6/41 g/m^3 (1st/2nd/3rd fumigation); 23/23/22° C.
# Text: (§5) a3) Broad-horned flour beetle (Gnathocerus cornutus)=GNATCO
# as §1, §2, §3, §4
# [3] = tested on: wood and storage pests; experiment: Fumigation test, wood and storage pests (overall statements); format: in vivo; details: Example 5; wood and storage pests
# Text: as §1, §2, §3, §4
# [4] = tested on: House longhorn beetle (Hylotrupes bajulus) larvae; experiment: Fumigation test in glass vessel, house longhorn beetle larvae in wood blocks; format: in vivo; details: HYLOBA larvae in wood blocks; Example 5; ACF 50.6/48.2/51.4 g/m^3, SF 47.4/44.6/41 g/m^3 (1st/2nd/3rd fumigation); 23/23/22° C.
# Text: (§6) b1) House longhorn beetle (Hylotrupes bajulus)=HYLOBA
# as §1, §2, §3, §4
# [5] = tested on: Rice weevil (Sitophilus oryzae); experiment: Fumigation test in glass vessel, rice weevils; format: in vivo; details: SITTOR beetles; Example 5; ACF 50.6/48.2/51.4 g/m^3, SF 47.4/44.6/41 g/m^3 (1st/2nd/3rd fumigation); 23/23/22° C.
# Text: (§7) a2) Rice weevil (Sitophilus oryzae)=SITTOR
# as §1, §2, §3, §4
# [6] = tested on: House longhorn beetle (Hylotrupes bajulus); experiment: Fumigation test in glass vessel, house longhorn beetles; format: in vivo; details: HYLOBA beetles; Example 5; ACF 50.6/48.2/51.4 g/m^3, SF 47.4/44.6/41 g/m^3 (1st/2nd/3rd fumigation); 23/23/22° C.
# Text: as §6, §1, §2, §3, §4
# [7] = tested on: Common furniture beetle (Anobium punctatum) larvae; experiment: Fumigation test in glass vessel, common furniture beetle larvae in wood blocks; format: in vivo; details: ANOBPU larvae in wood blocks; Example 5; ACF 50.6/48.2/51.4 g/m^3, SF 47.4/44.6/41 g/m^3 (1st/2nd/3rd fumigation); 23/23/22° C.
# Text: (§8) b2) Common furniture beetle (Anobium punctatum)=[…]
# as §1, §2, §3, §4
# [8] = tested on: Incisitermes tabogae; experiment: Termite control fumigation test, Incisitermes tabogae; format: in vivo; details: Example 6
# Text: (§9) c) American drywood termites (Cryptotermes brevis)=CRYPBR, and Incisitermes tabogae=INCITA
# as §1, §2, §3, §4
# [9] = tested on: Rice weevil (Sitophilus oryzae) larvae; experiment: Fumigation test in glass vessel, rice weevil larvae in grain seeds; format: in vivo; details: SITTOR larvae in grain seeds; Example 5; ACF 50.6/48.2/51.4 g/m^3, SF 47.4/44.6/41 g/m^3 (1st/2nd/3rd fumigation); 23/23/22° C.
# Text: as §7, §1, §2, §3, §4
# [10] = tested on: American drywood termites (Cryptotermes brevis); experiment: Termite control fumigation test, Cryptotermes brevis; format: in vivo; details: Example 6
# Text: as §9, §1, §2, §3, §4
# [11] = tested on: Mealworm beetle (Tenebrio molitor) larvae; experiment: Fumigation test in glass vessel, mealworm beetle larvae; format: in vivo; details: TENEMO larvae; Example 5; ACF 50.6/48.2/51.4 g/m^3, SF 47.4/44.6/41 g/m^3 (1st/2nd/3rd fumigation); 23/23/22° C.
# Text: (§10) a1) Mealworm beetle (Tenebrio molitor)=TENEMO
# as §1, §2, §3, §4
# [12] = tested on: Broad-horned flour beetle (Gnathocerus cornutus); experiment: Fumigation test in glass vessel, broad-horned flour beetles; format: in vivo; details: GNATCO beetles; Example 5; ACF 50.6/48.2/51.4 g/m^3, SF 47.4/44.6/41 g/m^3 (1st/2nd/3rd fumigation); 23/23/22° C.
# Text: as §5, §1, §2, §3, §4
# [13] = tested on: termites; experiment: Termite control fumigation test (overall statements); format: in vivo, Cryptotermes brevis, Incisitermes tabogae; details: Example 6; compared with those treated with acetyl fluoride
# Text: as §9, §1, §2, §3
# as §4, with “The wooden test blocks of the wood pest larvae were opened with hammer and chisel. Tweezers were used to pull the rice weevil larvae out of the grain seeds.” left out
# [14] = tested on: Common furniture beetle (Anobium punctatum); experiment: Fumigation test in glass vessel, common furniture beetles; format: in vivo; details: ANOBPU beetles; Example 5; ACF 50.6/48.2/51.4 g/m^3, SF 47.4/44.6/41 g/m^3 (1st/2nd/3rd fumigation); 23/23/22° C.
# Text: as §8, §1, §2, §3, §4
# [15] = tested on: Mealworm beetle (Tenebrio molitor); experiment: Fumigation test in glass vessel, mealworm beetles; format: in vivo; details: TENEMO beetles; Example 5; ACF 50.6/48.2/51.4 g/m^3, SF 47.4/44.6/41 g/m^3 (1st/2nd/3rd fumigation); 23/23/22° C.
# Text: as §10, §1, §2, §3, §4
# [16] = INCITA termites, ACF 50.0/53.8 g/m^3, SF 47.8/44.8 g/m^3 (1st/2nd fumigation), 23.7/24° C.
# [17] = CRYPBR termites, ACF 50.0/53.8 g/m^3, SF 47.8/44.8 g/m^3 (1st/2nd fumigation), 23.7/24° C.
smiles,measurement,setting,value
"O=S(=O)(F)F [SF, sulfuryl fluoride, reference compound]","Number alive, 30 min. after Start of Fumigation",[1],0
same,"Number dead, 30 min. after Start of Fumigation",[1],15
same,"Number alive, 30 min. after Start of Fumigation",[2],15
same,"Number alive, 1 hr. after Start of Fumigation",[2],0
same,"Number dead, 30 min. after Start of Fumigation",[2],0
same,"Number dead, 1 hr. after Start of Fumigation",[2],15
same,Speed of action compared with acetyl fluoride,[3],clearly acts more slowly than acetyl fluoride
same,"Number alive, 1 hr. after Start of Fumigation",[4],3
same,"Number alive, 3 hrs. after Start of Fumigation",[4],0
same,"Number alive, 6 hrs after Start of Fumigation",[4],0
same,"Number dead, 1 hr. after Start of Fumigation",[4],1
same,"Number dead, 3 hrs. after Start of Fumigation",[4],4
same,"Number dead, 6 hrs after Start of Fumigation",[4],6
same,"Number alive, 30 min. after Start of Fumigation",[5],0
same,"Number dead, 30 min. after Start of Fumigation",[5],15
same,"Number alive, 30 min. after Start of Fumigation",[6],4
same,"Number alive, 1 hr. after Start of Fumigation",[6],2
same,"Number alive, 3 hrs. after Start of Fumigation",[6],0
same,"Number dead, 30 min. after Start of Fumigation",[6],0
same,"Number dead, 1 hr. after Start of Fumigation",[6],2
same,"Number dead, 3 hrs. after Start of Fumigation",[6],4
same,"Number alive, 1 hr. after Start of Fumigation",[7],3
same,"Number alive, 3 hrs. after Start of Fumigation",[7],4
same,"Number alive, 6 hrs after Start of Fumigation",[7],0
same,"Number dead, 1 hr. after Start of Fumigation",[7],0
same,"Number dead, 3 hrs. after Start of Fumigation",[7],0
same,"Number dead, 6 hrs after Start of Fumigation",[7],8
same,Condition of Incisitermes on reexamination after 24-hour observation period,"[8]; animals fumigated 1 hour, then 24-hour observation",dead
same,"Number alive, 30 min. after 1st Fumigation",[8]; [16],90
same,"Number alive, 1 hr. after 1st Fumigation",[8]; [16],30
same,"Number alive, 3 hrs. after 1st Fumigation",[8]; [16],0
same,"Number dead, 30 min. after 1st Fumigation",[8]; [16],0
same,"Number dead, 1 hr. after 1st Fumigation",[8]; [16],0
same,"Number dead, 3 hrs. after 1st Fumigation",[8]; [16],60
same,"Number alive, 1 hr. after Start of Fumigation",[9],0
same,"Number dead, 1 hr. after Start of Fumigation",[9],15
same,"Number alive, 30 min. after 1st Fumigation",[10]; [17],180
same,"Number alive, 1 hr. after 1st Fumigation",[10]; [17],60
same,"Number alive, 3 hrs. after 1st Fumigation",[10]; [17],0
same,"Number dead, 30 min. after 1st Fumigation",[10]; [17],0
same,"Number dead, 1 hr. after 1st Fumigation",[10]; [17],0
same,"Number dead, 3 hrs. after 1st Fumigation",[10]; [17],120
same,Number of Cryptotermes still alive on reexamination after 24-hour observation period,"[10]; out of 60 animals fumigated 1 hour, then 24-hour observation",7
same,"Number alive, 30 min. after Start of Fumigation",[11],1
same,"Number alive, 1 hr. after Start of Fumigation",[11],1
same,"Number alive, 3 hrs. after Start of Fumigation",[11],0
same,"Number dead, 30 min. after Start of Fumigation",[11],4
same,"Number dead, 1 hr. after Start of Fumigation",[11],4
same,"Number dead, 3 hrs. after Start of Fumigation",[11],5
same,"Number alive, 30 min. after Start of Fumigation",[12],0
same,"Number dead, 30 min. after Start of Fumigation",[12],15
same,Liveliness of termites after 1 hour of fumigation,[13],more lively overall
same,"Number alive, 30 min. after Start of Fumigation",[14],0
same,"Number dead, 30 min. after Start of Fumigation",[14],6
same,"Number alive, 30 min. after Start of Fumigation",[15],0
same,"Number dead, 30 min. after Start of Fumigation",[15],10

# From patent publication US20030017186A1, “Carboxylic acid fluorides as pesticides” (priority 1999, published 2003)
